Results from ChEMBL document CHEMBL1909046, “DrugMatrix in vitro pharmacology data”.

What was measured:
[1] = molecular target: Sodium-dependent dopamine transporter (Homo sapiens, UniProt Q01959); experiment: DRUGMATRIX: Dopamine Transporter radioligand binding (ligand: [125I] RTI-55); format: cell membranes, CHO-K1, Membrane; details: cho-k1; Not Active = under 50% inhibition at 10 µM
[2] = DRUGMATRIX: Potassium Channel [KATP] radioligand binding (ligand: [3H] Glyburide); format: cell membranes, Membrane; details: hit-t15; Not Active = under 50% inhibition at 10 µM
[3] = DRUGMATRIX: Calcium Channel Type L, Dihydropyridine radioligand binding (ligand: [3H] Nitrendipine); format: cell membranes, Rattus norvegicus, Wistar, Cerebral cortex, Membrane; details: Not Active = under 50% inhibition at 10 µM
[4] = DRUGMATRIX: Glutamate, AMPA radioligand binding (ligand: [3H] AMPA); format: cell membranes, Rattus norvegicus, Wistar, Cerebral cortex, Membrane; details: Not Active = under 50% inhibition at 10 µM
Cytochrome P450 2C9 = Cytochrome P450 2C9 (Homo sapiens, UniProt P11712); details: bti-tn-5b1-4; further: in other assays of this panel Not Active means under 50% inhibition at 10 µM
[5] = DRUGMATRIX: Phosphodiesterase PDE3 enzyme inhibition (substrate: [3H]cAMP + cAMP); format: tissue-based, Homo sapiens; details: platelet; Not Active = under 50% inhibition at 10 µM
[6] = molecular target: Sodium-dependent noradrenaline transporter (Homo sapiens, UniProt P23975); experiment: DRUGMATRIX: Norepinephrine Transporter radioligand binding (ligand: [125I] RTI-55); format: cell membranes, MDCK, Membrane; details: mdck; Not Active = under 50% inhibition at 10 µM
[7] = DRUGMATRIX: Tumor Necrosis Factor (TNF), Non-Selective radioligand binding (ligand: [125I] TNF-alpha); format: cell membranes, Membrane; details: u-937; Not Active = under 50% inhibition at 10 µM
[8] = DRUGMATRIX: Platelet-Derived Growth Factor (PDGF) radioligand binding (ligand: [125I] PDGF); format: cell-based; details: nih3t3; Not Active = under 50% inhibition at 10 µM

Sodium-dependent noradrenaline transporter, sequence (P23975 whole entry): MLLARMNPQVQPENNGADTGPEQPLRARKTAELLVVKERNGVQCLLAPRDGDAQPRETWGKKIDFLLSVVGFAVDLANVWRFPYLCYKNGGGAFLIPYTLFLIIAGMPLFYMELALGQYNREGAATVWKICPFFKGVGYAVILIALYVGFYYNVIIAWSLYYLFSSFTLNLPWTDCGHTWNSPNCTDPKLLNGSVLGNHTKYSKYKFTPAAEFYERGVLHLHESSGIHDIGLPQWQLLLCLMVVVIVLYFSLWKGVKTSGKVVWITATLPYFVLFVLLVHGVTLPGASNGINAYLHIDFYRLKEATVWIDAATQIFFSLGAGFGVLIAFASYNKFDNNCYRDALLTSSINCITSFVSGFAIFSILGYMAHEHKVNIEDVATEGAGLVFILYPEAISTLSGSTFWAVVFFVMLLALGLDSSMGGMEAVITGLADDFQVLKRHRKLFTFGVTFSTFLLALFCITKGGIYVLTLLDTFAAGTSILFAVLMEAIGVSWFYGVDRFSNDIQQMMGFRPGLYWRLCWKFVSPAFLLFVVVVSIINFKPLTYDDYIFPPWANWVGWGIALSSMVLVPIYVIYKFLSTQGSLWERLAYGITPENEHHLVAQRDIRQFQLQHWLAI
Cytochrome P450 2C9, sequence (P11712 whole entry): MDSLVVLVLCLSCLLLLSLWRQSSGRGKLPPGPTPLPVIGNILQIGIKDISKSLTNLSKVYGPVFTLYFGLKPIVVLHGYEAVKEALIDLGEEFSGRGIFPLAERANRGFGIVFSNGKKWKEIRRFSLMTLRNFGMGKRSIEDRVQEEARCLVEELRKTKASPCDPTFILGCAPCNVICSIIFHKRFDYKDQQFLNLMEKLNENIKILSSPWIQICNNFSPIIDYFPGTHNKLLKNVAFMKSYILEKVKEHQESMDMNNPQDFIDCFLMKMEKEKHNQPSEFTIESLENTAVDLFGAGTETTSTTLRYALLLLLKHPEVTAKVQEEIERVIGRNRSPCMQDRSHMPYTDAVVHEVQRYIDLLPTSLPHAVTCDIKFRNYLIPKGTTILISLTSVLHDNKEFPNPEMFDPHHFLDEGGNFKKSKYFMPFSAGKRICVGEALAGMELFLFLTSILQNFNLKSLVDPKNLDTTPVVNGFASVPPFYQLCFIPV
Sodium-dependent dopamine transporter, sequence (Q01959 whole entry): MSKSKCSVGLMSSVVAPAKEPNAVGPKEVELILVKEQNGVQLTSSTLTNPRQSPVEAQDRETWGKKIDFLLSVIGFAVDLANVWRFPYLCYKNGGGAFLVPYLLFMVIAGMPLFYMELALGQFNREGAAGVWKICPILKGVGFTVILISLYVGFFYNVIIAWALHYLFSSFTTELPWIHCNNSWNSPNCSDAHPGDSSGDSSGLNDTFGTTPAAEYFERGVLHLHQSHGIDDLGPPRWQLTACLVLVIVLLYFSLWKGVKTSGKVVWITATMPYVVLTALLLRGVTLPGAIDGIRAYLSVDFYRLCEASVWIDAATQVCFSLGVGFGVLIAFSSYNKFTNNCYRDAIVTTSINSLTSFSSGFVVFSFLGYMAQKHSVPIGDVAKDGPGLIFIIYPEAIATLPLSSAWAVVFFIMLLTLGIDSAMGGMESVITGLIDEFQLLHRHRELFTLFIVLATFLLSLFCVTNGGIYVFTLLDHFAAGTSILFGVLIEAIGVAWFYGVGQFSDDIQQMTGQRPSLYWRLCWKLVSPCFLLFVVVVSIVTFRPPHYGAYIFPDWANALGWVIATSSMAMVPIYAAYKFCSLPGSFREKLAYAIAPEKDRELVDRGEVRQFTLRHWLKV

Compound | IC50 [1] | IC50 [2] | Ki [2] | IC50 [3] | Ki [3] | IC50 [4] | Ki [4] | IC50 (Cytochrome P450 2C9) | Ki (Cytochrome P450 2C9) | IC50 [5] | Ki [5] | IC50 [6] | IC50 [7] | Ki [7] | IC50 [8] | Ki [8] | IC50 ([3]; read-out: IC50) | Ki ([3]; read-out: Ki) | Ki [1] | Ki [6]
CC(=N)S [THIOACETAMIDE] | Not Active | Not Active | Not Active | Not Active | Not Active | Not Active | Not Active | Not Active | Not Active | Not Active | Not Active | Not Active | Not Active | Not Active | Not Active | Not Active | – | – | – | –
O=C1C[C@@H]2OCC=C3CN4CC[C@]56c7ccccc7N1[C@H]5[C@H]2[C@H]3C[C@H]46 [STRYCHNINE] | Not Active | Not Active | Not Active | Not Active | Not Active | Not Active | Not Active | – | – | Not Active | Not Active | Not Active | Not Active | Not Active | Not Active | Not Active | – | – | – | –
Nc1ccc(S(=O)(=O)NC(=O)c2ccccc2)cc1 [SULFABENZAMIDE] | Not Active | Not Active | Not Active | Not Active | Not Active | Not Active | Not Active | Not Active | Not Active | Not Active | Not Active | Not Active | Not Active | Not Active | Not Active | Not Active | – | – | – | –
CC(=O)OCC(COC(C)=O)OC(C)=O [TRIACETIN] | Not Active | Not Active | Not Active | Not Active | Not Active | Not Active | Not Active | Not Active | Not Active | Not Active | Not Active | Not Active | Not Active | Not Active | Not Active | Not Active | – | – | – | –
CCCCC(=O)N(Cc1ccc(-c2ccccc2-c2nnn[nH]2)cc1)[C@H](C(=O)O)C(C)C | Not Active | Not Active | Not Active | Not Active | Not Active | Not Active | Not Active | Not Active | Not Active | Not Active | Not Active | Not Active | Not Active | Not Active | Not Active | Not Active | – | – | – | –
OCCOCCN1CCN(C2=Nc3ccccc3Sc3ccccc32)CC1 [QUETIAPINE] | Not Active | – | – | – | – | – | – | Not Active | Not Active | – | – | Not Active | – | – | – | – | – | – | – | –
CC1CCC(NC(=O)N(CCCl)N=O)CC1 (stereo not given) [SEMUSTINE] | Not Active | Not Active | Not Active | Not Active | Not Active | Not Active | Not Active | Not Active | Not Active | Not Active | Not Active | Not Active | Not Active | Not Active | Not Active | Not Active | – | – | – | –
Oc1ccc2c3c1O[C@H]1[C@@H](O)CC[C@@]4(O)[C@@H](C2)N(CC2CCC2)CC[C@]314 [NALBUPHINE] | Not Active | – | – | – | – | – | – | – | – | – | – | Not Active | – | – | – | – | – | – | – | –
O=C(O)CCCCC1CCSS1 (stereo not drawn) [LIPOIC ACID, ALPHA] | Not Active | Not Active | Not Active | Not Active | Not Active | Not Active | Not Active | Not Active | Not Active | Not Active | Not Active | Not Active | Not Active | Not Active | Not Active | Not Active | – | – | – | –
CCCCCCCCNC(C)C(O)c1ccc(SC(C)C)cc1 (stereo not given) [SULOCTIDIL] | – | Not Active | Not Active | – | – | Not Active | Not Active | Not Active | Not Active | Not Active | Not Active | – | – | – | – | – | 0.26 µM | 0.167 µM | – | –
COC(=O)[C@H]1[C@H]2C[C@@H]3c4[nH]c5cc(OC)ccc5c4CCN3C[C@H]2C[C@@H](OC(=O)c2cc(OC)c(OC)c(OC)c2)[C@@H]1OC [RESERPINE] | Not Active | Not Active | Not Active | – | – | Not Active | Not Active | Not Active | Not Active | Not Active | Not Active | Not Active | Not Active | Not Active | Not Active | Not Active | 0.821 µM | 0.528 µM | – | –
O=c1[nH]c(=O)n(C2CCCO2)cc1F (stereo not given) [TEGAFUR] | Not Active | Not Active | Not Active | Not Active | Not Active | Not Active | Not Active | Not Active | Not Active | Not Active | Not Active | Not Active | Not Active | Not Active | Not Active | Not Active | – | – | – | –
CC(C)NC[C@H](O)COc1cccc2ccccc12 [LEVOPROPRANOLOL] | – | – | – | – | – | – | – | Not Active | Not Active | – | – | – | – | – | – | – | – | – | – | –
CN1[C@@H]2CC[C@H]1C[C@@H](OC(c1ccccc1)c1ccccc1)C2 [BENZTROPINE] | – | – | – | – | – | – | – | Not Active | Not Active | – | – | – | – | – | – | – | – | – | – | –
Cc1ccc(C(=O)c2ccc(CC(=O)O)n2C)cc1 [TOLMETIN] | Not Active | Not Active | Not Active | Not Active | Not Active | Not Active | Not Active | Not Active | Not Active | Not Active | Not Active | Not Active | Not Active | Not Active | Not Active | Not Active | – | – | – | –
C[S+]([O-])c1ccc(-c2nc(-c3ccncc3)c(-c3ccc(F)cc3)[nH]2)cc1 (stereo not given) [SB-203580] | Not Active | – | – | – | – | – | – | – | – | – | – | Not Active | – | – | – | – | – | – | – | –
CN1CCN(C2=Nc3cc(Cl)ccc3Nc3ccccc32)CC1 [CLOZAPINE] | – | – | – | – | – | – | – | Not Active | Not Active | – | – | – | – | – | – | – | – | – | – | –
C[C@]12C=CC(=O)C=C1CC[C@@H]1[C@@H]2C(=O)C[C@@]2(C)[C@H]1CC[C@]2(O)C(=O)CO [PREDNISONE] | Not Active | Not Active | Not Active | Not Active | Not Active | Not Active | Not Active | – | – | Not Active | Not Active | Not Active | Not Active | Not Active | Not Active | Not Active | – | – | – | –
CC(C)NC[C@@H](O)COc1cccc2ccccc12 [DEXPROPRANOLOL] | – | – | – | – | – | – | – | Not Active | Not Active | – | – | – | – | – | – | – | – | – | – | –
CN1CCN(CCCN2c3ccccc3Sc3ccc(C(F)(F)F)cc32)CC1 [TRIFLUOPERAZINE] | Not Active | Not Active | Not Active | Not Active | Not Active | Not Active | Not Active | – | – | Not Active | Not Active | Not Active | Not Active | Not Active | Not Active | Not Active | – | – | – | –
O=C(O)COc1ccc(C(=O)c2cccs2)c(Cl)c1Cl | Not Active | Not Active | Not Active | Not Active | Not Active | Not Active | Not Active | Not Active | Not Active | Not Active | Not Active | Not Active | Not Active | Not Active | Not Active | Not Active | – | – | – | –
C[N+](C)(C)CCOC(=O)CCC(=O)OCC[N+](C)(C)C.[Cl-].[Cl-] [SUCCINYLCHOLINE CHLORIDE] | Not Active | Not Active | Not Active | Not Active | Not Active | Not Active | Not Active | Not Active | Not Active | Not Active | Not Active | Not Active | Not Active | Not Active | Not Active | Not Active | – | – | – | –
TRANSPLATIN | Not Active | Not Active | Not Active | Not Active | Not Active | Not Active | Not Active | Not Active | Not Active | Not Active | Not Active | Not Active | Not Active | Not Active | Not Active | Not Active | – | – | Not Active | Not Active
C[C@@](Cc1ccc(O)c(O)c1)(NN)C(=O)O.O [CARBIDOPA] | Not Active | Not Active | Not Active | Not Active | Not Active | Not Active | Not Active | Not Active | Not Active | Not Active | Not Active | Not Active | Not Active | Not Active | Not Active | Not Active | – | – | – | –
CN(C)C(=O)C(CCN1CCC(O)(c2ccc(Cl)cc2)CC1)(c1ccccc1)c1ccccc1 [LOPERAMIDE] | – | – | – | – | – | – | – | Not Active | Not Active | – | – | – | – | – | – | – | – | – | – | –
